For data set [1], the system named is Platelet aggregation induced by collagen suspension. The experiment in a line: ex vivo inhibition of collagen-induced platelet aggregation after oral administration in rat. Particulars: 50 mg/kg (p.o) in rat, blood collected 2 hours after oral administration, vs vehicle control rats. The method, then:
Blood samples were collected 2 hours after oral administration of the
compound to be tested or vehicle alone. Platelet rich plasmas were
obtained by centrifugation of the blood. Platelet aggregation was induced
by adding collagen suspension to the platelet rich plasma and was compare
with that observed with the platelet rich plasma from the control rats

Data set [2] concerns collagen (Coll) induced platelet aggregation. The experiment in a line: in vitro inhibition of collagen (Coll) induced platelet aggregation, aggregometer method of Born, rat platelet rich plasma. It counts as cell-based. Particulars: rat citrated platelet rich plasma, 50% inhibition. The method, then:
(§1) The aggregometer method of Born [G. V. Born, Nature, 194, 927 (1962)] was used to assess the in vitro activity of the various compounds as to inhibition of adenosine diphosphate (ADP) and collagen (Coll) induced platelet aggregation. Platelet rich plasma (PRP) was separated by centrifugation from citrated (0.313%) rat blood.
(§2) A methanolic solution of the test compound was added to the PRP, then aggregation was induced by adding to the mixture of ADP solution containing CaCl2 or a collagen suspension prepared according to the method described by Ashida et al [S. Ashida and Y. Abiko, Thromb. Diath. Haemorrh., 30, 528 (1975)], and the optical density of the resulting mixture was determined. […] A dose response curve was drawn from the results obtained above and the effective concentration giving a 50% inhibition (EC50) was calculated.

Data set [3] in a line: blood pressure of normal rat after oral administration. Particulars: 50 mg/kg (p.o) in rat; 5-6 hours after oral administration. In kind it is in vivo. The method, then:
The blood pressure of normal rat was measured at 5-6 hours after the oral administration at a dose of 50 mg/kg.

The subject of data set [4] is adenosine diphosphate (ADP) induced platelet aggregation. Kind of data set: in vitro inhibition of adenosine diphosphate (ADP) induced platelet aggregation, aggregometer method of Born, rat platelet rich plasma. In kind it is cell-based. Particulars: rat citrated platelet rich plasma, 50% inhibition. The method, then:
as §1, §2

Consider 12 molecules from patent US4284773A, “1,2,3,5-Tetrahydroimidazothienopyrimidin-2-ones” (Daiichi Seiyaku Co., Ltd., priority 1978, dated 1981).

The EC50 is the concentration giving half of the maximal effect. A low value points to an effect from little substance. In the case of `Cc1cccc2c1CN1CC(=O)NC1=N2` [BL-3459, 6-methyl-1,2,3,5-tetrahydroimidazo[2,1-b]quinazolin-2-one, reference compound], the “Inhibition of Platelet Aggregation ex vivo % Inhibition” value in data set [1] is 57%. Also, the EC50 in data set [2] is 0.8 µM; in data set [4], 5 µM. Moreover, in data set [3], the “Blood Pressure % Reduction” value is 35 + 3%.

For the molecule `Cc1sc2c(c1C)CN1CC(=O)NC1=N2` [Compound 1, 6,7-dimethyl-1,2,3,5-tetrahydroimidazo[1,2-a]thieno[2,3-d]pyrimidin-2-one], in data set [1], the “Inhibition of Platelet Aggregation ex vivo % Inhibition” value amounted to 84%. For the same molecule, the values for the EC50 in data set [2] and in data set [4] were 1 µM and 5 µM, respectively. In addition, in data set [3], the “Blood Pressure % Reduction” value worked out at 5 ± 3%.

Take `Cc1csc2c1CN1CC(=O)NC1=N2` [Compound 4]: the results for the EC50 in data set [2] and in data set [4] were 15 µM and 19 µM, respectively.

Turning to `Cc1c(Cl)sc2c1CN1CC(=O)NC1=N2` [Compound 6], the “Inhibition of Platelet Aggregation ex vivo % Inhibition” value in data set [1] stood at 24%. Further, the EC50 came to 1.9 µM in data set [2] and 4.2 µM in data set [4].

With `O=C1CN2Cc3c(sc4c3CCCC4)N=C2N1` [Compound 8, 1,2,3,5,6,7,8,9-octahydroimidazo[1,2-a][1]benzothieno[2,3-d]pyrimidin-2-one], in data set [1], the “Inhibition of Platelet Aggregation ex vivo % Inhibition” value is reported as 57%. In addition, the EC50 turned out to be 0.1 µM in data set [2] and 5 µM in data set [4]. Besides, in data set [3], the “Blood Pressure % Reduction” value was determined as 8 ± 2%.

For `O=C1CN2Cc3c(sc4c3CCCCC4)N=C2N1` [Compound 9], the EC50 in data set [2] came out at 15 µM; in data set [4] it was 20 µM.

With `O=C1CN2Cc3sccc3N=C2N1` [Compound 11], the results for the EC50 in data set [2] and in data set [4] were 10 µM and 85 µM, respectively.

With `Cc1scc2c1CN1CC(=O)NC1=N2` [Compound 14], the “Inhibition of Platelet Aggregation ex vivo % Inhibition” value in data set [1] is 32%. The results for the EC50 in data set [2] and in data set [4] were 3.5 µM and 17 µM, respectively.

On to `CCCc1c(CC)sc2c1CN1CC(=O)NC1=N2` [Compound 15], for which the “Inhibition of Platelet Aggregation ex vivo % Inhibition” value in data set [1] was determined as 90%. For the same molecule, the EC50 in data set [2] came out at 2.2 µM; in data set [4], 3 µM.

Regarding `CCCc1sc2c(c1C)CN1CC(=O)NC1=N2` [Compound 16], the “Inhibition of Platelet Aggregation ex vivo % Inhibition” value in data set [1] is 60%. Further, the EC50 in data set [2] was 0.08 µM; in data set [4], 0.58 µM.

In the case of `CCCCCc1sc2c(c1C)CN1CC(=O)NC1=N2` [Compound 17], the EC50 in data set [2] turned out to be 0.19 µM; in data set [4], 2 µM.

Turning to `CC1C(=O)NC2=Nc3sc4c(c3CN21)CCCC4` (stereo not shown) [Compound 18], the values for the EC50 in data set [2] and in data set [4] were 0.6 µM and 48 µM, respectively.
